Read-outs that look alike come from different tables or passages of the source.
Key:
Type in all cases: cell-based
[1] = test system: Morganella morganii (MMO) isolates; test: MIC of compounds alone and combined with antibacterials, broth microdilution (CLSI); conditions: Morganella morganii
Procedure, shortened: (§1)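 Broth microdilution in cation-adjusted Mueller-Hinton broth, inoculum 5.10^5 CFU/mL, 16-20 h at 35° C in ambient air, on genotyped isolates. Compound MIC, alone or with an antibacterial, taken visually as lowest concentration preventing growth; antibacterial MIC determined at each compound concentration.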

[2] = test system: Citrobacter freundii (CFR) isolates; test: as above; conditions: Citrobacter freundii
Procedure, shortened: as §1

[3] = test system: Enterobacter aerogenes (EAE) isolates; test: as above; conditions: Klebsiella aerogenes
Procedure, shortened: as §1

[4] = test system: Citrobacter koseri (CKR) isolates; test: as above; conditions: Citrobacter koseri
Procedure, shortened: as §1

[5] = test system: Proteus mirabilis (PMI) isolates; test: microbe, parasite or virus in culture; conditions: Proteus mirabilis
Procedure, shortened: as §1

[6] = strain MMO UFR243, genotype DHA-1, read-out: MIC
[7] = strain MMO UFR244, genotype DHA-1, read-out: MIC
[8] = strain MMO UFR245, genotype DHA-1, read-out: MIC
[9] = strain MMO UFR246, genotype DHA-1, read-out: MIC
[10] = strain MMO UFR247, genotype DHA-1, read-out: MIC
[11] = strain CFR UFR254, genotype VEB-1b, OXA-48, qnrA, read-out: MIC
[12] = strain EAE 49469, genotype AmpC, read-out: MIC
[13] = strain PMI UFR82, genotype CMY-2, read-out: MIC
[14] = strain PMI UFR122, genotype TEM-1, CTX-M-15, read-out: MIC
[15] = strain PMI UFR130, genotype CMY-2, read-out: MIC

COCC1=C(C(=O)O)N2C(=O)[C@@H](NC(=O)/C(=N\OC)c3csc(N)n3)[C@H]2SC1 [POD, Cefpodoxime]
MIC [1, 6]: 64 mg/L | MIC [1, 7]: 16 mg/L | MIC [1, 8]: 64 mg/L | MIC [1, 9]: 64 mg/L | MIC [1, 10]: 64 mg/L | MIC ([2]; strain CFR UFR253, genotype TEM-1, SHV-12, OXA-48, read-out: MIC): 32 mg/L | MIC [2, 11]: 32 mg/L | MIC [3, 12]: > 128 mg/L | MIC ([4]; strain CKO ROU, genotype TEM-1, SHV-12, CTX-M-15, OXA-1, OXA-48, read-out: MIC): 4 mg/L | MIC ([4]; strain CKO UFR150, genotype TEM-1, OXA-48, read-out: MIC): 16 mg/L | MIC [5, 13]: 64 mg/L | MIC [5, 14]: 64 mg/L | MIC ([5]; strain PMI UFR127, genotype VEB-1, read-out: MIC): 128 mg/L | MIC [5, 15]: 128 mg/L

C=CC1=C(C(=O)O)N2C(=O)[C@@H](NC(=O)/C(=N\O)c3csc(N)n3)[C@H]2SC1 [CDR, Cefdinir]
MIC [1]: > 256 mg/L | MIC ([1]; strain MMO 200321, genotype TEM-1, CTX-M-15, OXA-1, read-out: MIC): 256 mg/L | MIC ([1]; strain MMO UFR144, genotype TEM-1, CTX-M-15, read-out: MIC): 128 mg/L | MIC ([1]; strain MMO UFR240, genotype CTX-M-9, read-out: MIC): 64 mg/L | MIC ([1]; strain MMO UFR241, genotype TEM-1, CTX-M-15, read-out: MIC): 128 mg/L | MIC [1, 6]: 64 mg/L | MIC [1, 7]: 32 mg/L | MIC [1, 8]: 64 mg/L | MIC [1, 9]: 64 mg/L | MIC [1, 10]: 128 mg/L | MIC ([2]; strain CFR UFR10, genotype OXA-48): > 256 mg/L | MIC ([2]; strain CFR UFR11, genotype TEM-1, OXA-1, OXA-48): > 256 mg/L | MIC ([2]; strain CFR UFR83, genotype TEM-3, AmpC): > 256 mg/L | MIC ([2]; strain CFR UFR146, genotype TEM-1, KPC-2, read-out: MIC): 256 mg/L | MIC ([2]; strain CFR UFR248, genotype CTX-M-15): > 256 mg/L | MIC ([2]; strain CFR UFR249, genotype TEM-1, CTX-M-15): > 256 mg/L | MIC ([2]; strain CFR UFR250, genotype TEM-1, SHV-28, CTX-M-15): > 256 mg/L | MIC ([2]; strain CFR UFR253, genotype TEM-1, SHV-12, OXA-48): > 256 mg/L | MIC [2, 11]: 256 mg/L | MIC [3]: > 256 mg/L | MIC [3, 12]: > 128 mg/L | MIC ([3]; strain EAE UFR202, genotype TEM-24, read-out: MIC): 256 mg/L | MIC ([3]; strain EAE UFR213, genotype TEM-24, read-out: MIC): 256 mg/L | MIC [4]: > 256 mg/L | MIC [5, 13]: 16 mg/L | MIC ([5]; strain PMI UFR120, genotype TEM-1, SHV-11, CTX-M-14, read-out: MIC): 64 mg/L | MIC ([5]; strain PMI UFR121, genotype TEM-1, TEM-52): > 256 mg/L | MIC [5, 14]: 16 mg/L | MIC ([5]; strain PMI UFR123, genotype CTX-M-1): > 256 mg/L | MIC ([5]; strain PMI UFR124, genotype CTX-M-2): > 256 mg/L | MIC ([5]; strain PMI UFR125, genotype CTX-M-71, read-out: MIC): 256 mg/L | MIC ([5]; strain PMI UFR126, genotype TEM-2, PER-1): > 256 mg/L | MIC ([5]; strain PMI UFR127, genotype VEB-1): > 256 mg/L | MIC ([5]; strain PMI UFR129, genotype TEM-1, VEB-6): > 256 mg/L | MIC [5, 15]: 16 mg/L | MIC ([5]; strain PMI UFR237, genotype VEB-6): > 256 mg/L

Reference: US20200017495A1, “NOVEL HETEROCYCLIC COMPOUNDS AND THEIR USE IN PREVENTING OR TREATING BACTERIAL INFECTIONS” (priority 2017, published 2020)
